Several values for one entry are separate records, joined by “and”; a condition that tells them apart may be missing. Equal values may be shown once.
What was measured:
Type in all cases: cell-based, human
RPMI-8226 (Leukemia) = assay: NCI60 screen (SRB); conditions: one dose 10 µM, 48 h
RXF 393 (Renal Cancer) = assay: NCI60 screen (SRB); conditions: one dose 10 µM, 48 h
[1] = tested on: A549/ATCC (Non-Small Cell Lung Cancer); assay: NCI60 screen (SRB); conditions: one dose 10 µM, 48 h
[2] = tested on: NCI-H23 (Non-Small Cell Lung Cancer); assay: NCI60 screen (SRB); conditions: one dose 10 µM, 48 h
OVCAR-5 (Ovarian Cancer) = assay: NCI60 screen (SRB); conditions: one dose 10 µM, 48 h
OVCAR-3 (Ovarian Cancer) = assay: NCI60 screen (SRB); conditions: one dose 10 µM, 48 h
SK-MEL-5 (Melanoma) = assay: NCI60 screen (SRB); conditions: one dose 10 µM, 48 h
HCC-2998 (Colon Cancer) = assay: NCI60 screen (SRB); conditions: one dose 10 µM, 48 h
UACC-62 (Melanoma) = assay: NCI60 screen (SRB); conditions: one dose 10 µM, 48 h
HCT-116 (Colon Cancer) = assay: NCI60 screen (SRB); conditions: one dose 10 µM, 48 h
[3] = tested on: NCI-H226 (Non-Small Cell Lung Cancer); assay: NCI60 screen (SRB); conditions: one dose 10 µM, 48 h
SF-539 (CNS Cancer) = assay: NCI60 screen (SRB); conditions: one dose 10 µM, 48 h
SNB-75 (CNS Cancer) = assay: NCI60 screen (SRB); conditions: one dose 10 µM, 48 h
SK-MEL-28 (Melanoma) = assay: NCI60 screen (SRB); conditions: one dose 10 µM, 48 h
OVCAR-8 (Ovarian Cancer) = assay: NCI60 screen (SRB); conditions: one dose 10 µM, 48 h
TK-10 (Renal Cancer) = assay: NCI60 screen (SRB); conditions: one dose 10 µM, 48 h
HS 578T (Breast Cancer) = assay: NCI60 screen (SRB); conditions: HS 578T; one dose 10 µM; 48 h
LOX IMVI (Melanoma) = assay: NCI60 screen (SRB); conditions: one dose 10 µM, 48 h
KM12 (Colon Cancer) = assay: NCI60 screen (SRB); conditions: one dose 10 µM, 48 h
K-562 (Leukemia) = assay: NCI60 screen (SRB); conditions: one dose 10 µM, 48 h
M14 (Melanoma) = assay: NCI60 screen (SRB); conditions: one dose 10 µM, 48 h
[4] = tested on: HOP-92 (Non-Small Cell Lung Cancer); assay: NCI60 screen (SRB); conditions: one dose 10 µM, 48 h
[5] = tested on: NCI/ADR-RES (Ovarian Cancer); assay: NCI60 screen (SRB); conditions: one dose 10 µM, 48 h
[6] = tested on: MDA-MB-468 (Breast Cancer); assay: NCI60 screen (SRB); conditions: one dose 10 µM, 48 h
[7] = tested on: EKVX (Non-Small Cell Lung Cancer); assay: NCI60 screen (SRB); conditions: one dose 10 µM, 48 h
A498 (Renal Cancer) = assay: NCI60 screen (SRB); conditions: one dose 10 µM, 48 h
SW-620 (Colon Cancer) = assay: NCI60 screen (SRB); conditions: one dose 10 µM, 48 h
HT29 (Colon Cancer) = assay: NCI60 screen (SRB); conditions: one dose 10 µM, 48 h
ACHN (Renal Cancer) = assay: NCI60 screen (SRB); conditions: one dose 10 µM, 48 h
SK-MEL-2 (Melanoma) = assay: NCI60 screen (SRB); conditions: one dose 10 µM, 48 h
786-0 (Renal Cancer) = assay: NCI60 screen (SRB); conditions: one dose 10 µM, 48 h
SF-268 (CNS Cancer) = assay: NCI60 screen (SRB); conditions: one dose 10 µM, 48 h
PC-3 (Prostate Cancer) = assay: NCI60 screen (SRB); conditions: one dose 10 µM, 48 h
leukemia panel = assay: NCI60 screen (SRB), panel mean; conditions: one dose 10 µM, 48 h
SF-295 (CNS Cancer) = assay: NCI60 screen (SRB); conditions: one dose 10 µM, 48 h
CAKI-1 (Renal Cancer) = assay: NCI60 screen (SRB); conditions: one dose 10 µM, 48 h
T-47D (Breast Cancer) = assay: NCI60 screen (SRB); conditions: one dose 10 µM, 48 h
MCF7 (Breast Cancer) = assay: NCI60 screen (SRB); conditions: one dose 10 µM, 48 h
BT-549 (Breast Cancer) = assay: NCI60 screen (SRB); conditions: one dose 10 µM, 48 h
SN12C (Renal Cancer) = assay: NCI60 screen (SRB); conditions: one dose 10 µM, 48 h
MALME-3M (Melanoma) = assay: NCI60 screen (SRB); conditions: one dose 10 µM, 48 h
HL-60 (TB) (Leukemia) = assay: NCI60 screen (SRB); conditions: HL-60 (TB); one dose 10 µM; 48 h

Question: `COc1ccc(/C=C/C(c2cc(OC)c(OC)c(OC)c2)n2cncn2)cc1` (stereo not drawn) [Compound 22a, (E)-1-(3-(4-Methoxyphenyl)-1-(3,4,5-trimethoxyphenyl)allyl)-1H-1,2,4-triazole] was tested. Which growth percent (RPMI-8226 (Leukemia)) did it give?
Answer: 50.84%

Question: What about the growth percent (RXF 393 (Renal Cancer)) of the same molecule?
Answer: 46.51%

Question: And the growth percent [1]?
Answer: 35.48%

Question: And the growth percent [2]?
Answer: 67.01%

Question: And the growth percent (OVCAR-5 (Ovarian Cancer))?
Answer: 90.16%

Question: What about the growth percent (OVCAR-3 (Ovarian Cancer)) of the same molecule?
Answer: 9.06%

Question: What about the growth percent (SK-MEL-5 (Melanoma)) of the same molecule?
Answer: 33.03%

Question: And the growth percent (HCC-2998 (Colon Cancer))?
Answer: 84.15%

Question: And the growth percent (UACC-62 (Melanoma))?
Answer: 33.84%

Question: What about the growth percent (HCT-116 (Colon Cancer)) of the same molecule?
Answer: 21.99%

Question: What about the growth percent [3] of the same molecule?
Answer: 75.97%

Question: What about the growth percent (SF-539 (CNS Cancer)) of the same molecule?
Answer: 56.52%

Question: And the growth percent (SNB-75 (CNS Cancer))?
Answer: 51.27%

Question: And the growth percent (SK-MEL-28 (Melanoma))?
Answer: 62.59%

Question: And the growth percent (OVCAR-8 (Ovarian Cancer))?
Answer: 52.16%

Question: What about the growth percent (TK-10 (Renal Cancer)) of the same molecule?
Answer: 48.52%

Question: What about the growth percent (HS 578T (Breast Cancer)) of the same molecule?
Answer: 51.18%

Question: What about the growth percent (LOX IMVI (Melanoma)) of the same molecule?
Answer: 49.98%

Question: And the growth percent (KM12 (Colon Cancer))?
Answer: 30.66%

Question: What about the growth percent (K-562 (Leukemia)) of the same molecule?
Answer: 17.72%

Question: What about the growth percent (M14 (Melanoma)) of the same molecule?
Answer: 17.86%

Question: And the growth percent [4]?
Answer: 40.32%

Question: And the growth percent [5]?
Answer: 36.28%

Question: What about the growth percent [6] of the same molecule?
Answer: 40.88%

Question: And the growth percent [7]?
Answer: 66.04%

Question: And the growth percent (A498 (Renal Cancer))?
Answer: 36.38%

Question: And the growth percent (SW-620 (Colon Cancer))?
Answer: 26.63%

Question: And the growth percent (HT29 (Colon Cancer))?
Answer: 4.96%

Question: What about the growth percent (ACHN (Renal Cancer)) of the same molecule?
Answer: 57.45%

Question: And the growth percent (SK-MEL-2 (Melanoma))?
Answer: 12.89%

Question: What about the growth percent (786-0 (Renal Cancer)) of the same molecule?
Answer: 39.65%

Question: And the growth percent (SF-268 (CNS Cancer))?
Answer: 57.07%

Question: And the growth percent (PC-3 (Prostate Cancer))?
Answer: 31.20%

Question: And the mean growth percentage (leukemia panel)?
Answer: 24.0%

Question: What about the growth percent (SF-295 (CNS Cancer)) of the same molecule?
Answer: 22.52%

Question: And the growth percent (CAKI-1 (Renal Cancer))?
Answer: 51.61%

Question: What about the growth percent (T-47D (Breast Cancer)) of the same molecule?
Answer: 30.79%

Question: What about the growth percent (MCF7 (Breast Cancer)) of the same molecule?
Answer: 22.5% and 22.48%

Question: And the growth percent (BT-549 (Breast Cancer))?
Answer: 45.45%

Question: And the growth percent (SN12C (Renal Cancer))?
Answer: 62.02%

Question: What about the growth percent (MALME-3M (Melanoma)) of the same molecule?
Answer: 61.34%

Question: And the growth percent (HL-60 (TB) (Leukemia))?
Answer: −17.94%
